The results in this text go back to patent US7977363B2, “Biphenyl-thiazolo-carboxamides” (Bayer Cropscience AG, priority 2004, dated 2011).

The first series concerns Pyrenophora teres. In words: Pyrenophora teres Test (Barley)/Protective. In kind it is in vivo. As to conditions: protective, 500 g/ha, evaluated 7 days after inoculation. Here is the method: [table] To produce a suitable preparation of active compound, 1 part by weight of active compound is mixed with the stated amounts of solvent and emulsifier, and the concentrate is diluted with water to the desired concentration. In order to test the protective activity, young plants are sprayed with the active compound preparation at the stated application rate. After the spray coating dries, the plants are sprayed with a conidial suspension of Pyrenophora teres. The plants remain in an incubation cabinet for 48 hours at 20° C. and 100% relative humidity. The plants are then placed in a greenhouse at a temperature of approx. 20° C. and a relative humidity of 80%. The results are evaluated 7 days after the inoculation. An efficacy of 0% corresponds to that of the control, while an efficacy of 100% means that no infestation is observed.
Compound `Cc1nc(C(F)F)c(C(=O)Nc2ccc(F)cc2-c2ccc(Cl)c(Cl)c2)s1` [drawing 74] yielded an Efficacy in % of 100%. With `Cc1nc(C(F)F)c(C(=O)Nc2c(F)cccc2-c2ccc(Cl)c(F)c2)s1` [drawing 75], the Efficacy in % is given as 100%.

Regarding `Cc1nc(C(F)(F)F)c(C(=O)Nc2ccc(F)cc2-c2ccc(Cl)c(F)c2)s1` [drawing 76], the Efficacy in % was found to be 100%. Regarding `Cc1nc(C(F)F)c(C(=O)Nc2ccc(F)cc2-c2ccc(Cl)c(F)c2)s1` [drawing 77], the Efficacy in % is given as 100%. For the compound `Cc1nc(C(F)F)c(C(=O)Nc2ccc(F)cc2-c2ccc(Cl)c(C)c2)s1` [drawing 78], the Efficacy in % is reported as 100%.

For the compound `Cc1nc(C(F)F)c(C(=O)Nc2ccc(F)cc2-c2cccc(C)c2F)s1` [drawing 79], the Efficacy in % amounted to 100%.

Test system in another series: not listed separately
In words: Log P determination by HPLC on reversed-phase column (EEC Directive 79/831, Annex V.A8). The class given is physicochemical. The conditions noted are these: reversed-phase HPLC column (C18), pH 2.3; read-out: log P (pH 2.3). Here is the method:
The determination of the Log P values occurred according to EEC Directive 79/831, Annex V.A8 using HPLC (High Performance Liquid Chromatography) on a reversed-phase column (C 18). Temperature: 43° C. Eluents for determination in the acidic range (pH 2.3): 0.1% aqueous phosphoric acid, acetonitrile; linear gradient of 10% acetonitrile to 90% acetonitrile. Calibration took place using unbranched alkane-2-ones (with 3 to 16 carbon atoms) with known Log P values (the Log P values were determined on the basis of the retention times by way of linear interpolation between two consecutive alkanones).
In the case of `Cc1nc(C(F)(F)F)c(C(=O)Nc2ccc(F)cc2-c2ccc(Cl)c(F)c2)s1` [Compound 2.18, N-(4′-chloro-3′,5-difluorobiphenyl-2-yl)-2-methyl-4-(trifluoromethyl)-1,3-thiazole-5-carboxamide], the chromatographic logP worked out at 3.67. Consider `Nc1ccc(F)cc1-c1ccc(Cl)c(F)c1` [III-1, 4′-chloro-3′,5-difluorobiphenyl-2-amine], for which the chromatographic logP is 3.18.

Staying with this series, now noted: reversed-phase HPLC column (C18); HPLC, C18 reversed phase, 43° C., acidic range (pH 2.3); read-out: Log P.
`Cc1nc(C(F)(F)F)c(C(=O)Nc2ccc(F)cc2-c2ccc(Cl)c(Cl)c2)s1` [Compound 2.11, N-(3′,4′-dichloro-5-fluorobiphenyl-2-yl)-2-methyl-4-(trifluoromethyl)-1,3-thiazole-5-carboxamide]: the chromatographic logP turned out to be 3.93. For the compound `Cc1nc(C(F)F)c(C(=O)Nc2ccc(F)cc2-c2ccc(Cl)c(Cl)c2)s1` [Compound 2.12], the chromatographic logP turned out to be 3.63. On to `Cc1nc(C(F)F)c(C(=O)Nc2c(F)cccc2-c2ccc(Cl)c(Cl)c2)s1` [Compound 2.13], for which the chromatographic logP came to 3.43.

Consider `Cc1nc(C(F)(F)F)c(C(=O)Nc2c(F)cccc2-c2ccc(Cl)c(Cl)c2)s1` [Compound 2.14], for which the chromatographic logP worked out at 3.68.

Consider `Cc1nc(C(F)F)c(C(=O)Nc2c(F)cccc2-c2ccc(Cl)c(F)c2)s1` [Compound 2.16], for which the chromatographic logP was 3.16.

For the compound `Cc1nc(C(F)F)c(C(=O)Nc2ccc(F)cc2-c2ccc(Cl)c(F)c2)s1` [Compound 2.17], the chromatographic logP was 3.36.

For the compound `Cc1nc(C(F)(F)F)c(C(=O)Nc2ccc(F)cc2-c2ccc(Cl)c(C)c2)s1` [Compound 2.20], the chromatographic logP turned out to be 3.99.

Regarding `Cc1nc(C(F)F)c(C(=O)Nc2ccc(F)cc2-c2ccc(Cl)c(C)c2)s1` [Compound 2.21], the chromatographic logP is 3.68.

Another series deals with apple scab fungus Venturia inaequalis. In words: Venturia Test (Apple)/Protective. In kind it is in vivo. As to conditions: 240 h, protective, evaluated 10 days after inoculation, read-out: Efficacy in %. Here is the method:
(§1) [table] To produce a suitable preparation of active compound, 1 part by weight of active compound is mixed with the stated amounts of solvent and emulsifier, and the concentrate is diluted with water to the desired concentration. In order to test the protective activity, young plants are sprayed with the active compound preparation at the stated application rate. After the spray coating dries, the plants are inoculated with an aqueous conidial suspension of the apple scab fungus Venturia inaequalis and then remain in an incubation cabinet for 1 day at approx. 20° C. and 100% relative humidity. The plants are then placed in the greenhouse at approx. 21° C. and at a relative humidity of approx. 90%. The results are evaluated 10 days after the inoculation. An efficacy of 0% corresponds to that of the control, while an efficacy of 100% means that no infestation is observed.
Take `Cc1nc(C(F)F)c(C(=O)Nc2ccc(F)cc2-c2ccc(Cl)c(Cl)c2)s1` [drawing 56]: the pest or weed control at 100 g/ha turned out to be 100%. The same measure, in the same setting: next, `Cc1nc(C(F)F)c(C(=O)Nc2c(F)cccc2-c2ccc(Cl)c(Cl)c2)s1` [drawing 57]: 100%; `Cc1nc(C(F)(F)F)c(C(=O)Nc2ccc(F)cc2-c2ccc(Cl)c(Cl)c2)s1` [drawing 58]: 100%; `Cc1nc(C(F)(F)F)c(C(=O)Nc2c(F)cccc2-c2ccc(Cl)c(Cl)c2)s1` [drawing 59]: 100%. Still for that read-out and setting: next, `Cc1nc(C(F)F)c(C(=O)Nc2c(F)cccc2-c2ccc(Cl)c(F)c2)s1` [drawing 60]: 100%.

For the compound `Cc1nc(C(F)(F)F)c(C(=O)Nc2ccc(F)cc2-c2ccc(Cl)c(F)c2)s1` [drawing 61], the pest or weed control at 100 g/ha turned out to be 100%. Consider `Cc1nc(C(F)(F)F)c(C(=O)Nc2ccc(F)cc2-c2ccc(Cl)c(C)c2)s1` [drawing 62], for which the pest or weed control at 100 g/ha is 100%. Same read-out and setting: the same measure for `Cc1nc(C(F)F)c(C(=O)Nc2ccc(F)cc2-c2ccc(Cl)c(C)c2)s1` [drawing 63]: 100%; for `Cc1nc(C(F)F)c(C(=O)Nc2ccc(F)cc2-c2cccc(C)c2F)s1` [drawing 64]: 98%.

Another series deals with Botrytis cinerea. In words: Botrytis Test (Bean)/Protective. The class given is in vivo. As to conditions: 48 h, protective, evaluated 2 days after inoculation, read-out: Efficacy in %. As to the method: [table] To produce a suitable preparation of active compound, 1 part by weight of active compound is mixed with the stated amounts of solvent and emulsifier, and the concentrate is diluted with water to the desired concentration. In order to test the protective activity, young plants are sprayed with the active compound preparation at the stated application rate. After the spray coating dries, 2 small pieces of agar that are infested with Botrytis cinerea are placed on each leaf. The inoculated plants are placed in a darkened chamber at 20° C. and 100% relative humidity. The size of the infestation blotches on the leaves is evaluated 2 days after the inoculation. An efficacy of 0% corresponds to that of the control, while an efficacy of 100% means that no infestation is observed.
With `Cc1nc(C(F)F)c(C(=O)Nc2ccc(F)cc2-c2ccc(Cl)c(Cl)c2)s1` [drawing 65], the pest or weed control at 500 g/ha was found to be 100%. Same read-out and setting: the same measure for `Cc1nc(C(F)F)c(C(=O)Nc2c(F)cccc2-c2ccc(Cl)c(Cl)c2)s1` [drawing 66]: 100%; for `Cc1nc(C(F)(F)F)c(C(=O)Nc2ccc(F)cc2-c2ccc(Cl)c(Cl)c2)s1` [drawing 67]: 99%; for `Cc1nc(C(F)(F)F)c(C(=O)Nc2c(F)cccc2-c2ccc(Cl)c(Cl)c2)s1` [drawing 68]: 98%. Same read-out and setting: the same measure for `Cc1nc(C(F)F)c(C(=O)Nc2c(F)cccc2-c2ccc(Cl)c(F)c2)s1` [drawing 69]: 100%; for `Cc1nc(C(F)(F)F)c(C(=O)Nc2ccc(F)cc2-c2ccc(Cl)c(F)c2)s1` [drawing 70]: 100%.

For the compound `Cc1nc(C(F)(F)F)c(C(=O)Nc2ccc(F)cc2-c2ccc(Cl)c(C)c2)s1` [drawing 71], the pest or weed control at 500 g/ha is 100%.

For the compound `Cc1nc(C(F)F)c(C(=O)Nc2ccc(F)cc2-c2ccc(Cl)c(C)c2)s1` [drawing 72], the pest or weed control at 500 g/ha was 100%. As to `Cc1nc(C(F)F)c(C(=O)Nc2ccc(F)cc2-c2cccc(C)c2F)s1` [drawing 73], the pest or weed control at 500 g/ha worked out at 98%.

Another series relates to Podosphaera leucotricha. In words: Podosphaera Test (Apple)/Protective. The conditions noted are these: 240 h, protective, evaluated 10 days after inoculation, read-out: Efficacy in %. In kind it is in vivo. As to the method:
as §1, with “spore” for “conidial”, “Podosphaera leucotricha.” for “the apple scab fungus Venturia inaequalis and then remain in an incubation cabinet for 1 day at approx. 20° C. and 100% relative humidity.”, “23°” for “21°”, “70%.” for “90%.”
As to `Cc1nc(C(F)F)c(C(=O)Nc2ccc(F)cc2-c2ccc(Cl)c(Cl)c2)s1` [drawing 47], the pest or weed control at 100 g/ha came out at 100%. Same read-out and setting: next, `Cc1nc(C(F)F)c(C(=O)Nc2c(F)cccc2-c2ccc(Cl)c(Cl)c2)s1` [drawing 48]: 100%; `Cc1nc(C(F)(F)F)c(C(=O)Nc2ccc(F)cc2-c2ccc(Cl)c(Cl)c2)s1` [drawing 49]: 100%.

Consider `Cc1nc(C(F)(F)F)c(C(=O)Nc2c(F)cccc2-c2ccc(Cl)c(Cl)c2)s1` [drawing 50], for which the pest or weed control at 100 g/ha stood at 100%. The same measure, in the same setting: next, `Cc1nc(C(F)F)c(C(=O)Nc2c(F)cccc2-c2ccc(Cl)c(F)c2)s1` [drawing 51]: 100%.

For `Cc1nc(C(F)(F)F)c(C(=O)Nc2ccc(F)cc2-c2ccc(Cl)c(F)c2)s1` [drawing 52], the pest or weed control at 100 g/ha turned out to be 100%. As for `Cc1nc(C(F)(F)F)c(C(=O)Nc2ccc(F)cc2-c2ccc(Cl)c(C)c2)s1` [drawing 53], the pest or weed control at 100 g/ha was 100%.

Regarding `Cc1nc(C(F)F)c(C(=O)Nc2ccc(F)cc2-c2ccc(Cl)c(C)c2)s1` [drawing 54], the pest or weed control at 100 g/ha stood at 100%. As for `Cc1nc(C(F)F)c(C(=O)Nc2ccc(F)cc2-c2cccc(C)c2F)s1` [drawing 55], the pest or weed control at 100 g/ha worked out at 94%.

In the next series the test system is Alternaria solani. In words: Alternaria Test (Tomato)/Protective. The class given is in vivo. The conditions noted are these: protective, 750 g/ha, evaluated 7 days after inoculation. As to the method: [table] To produce a suitable preparation of active compound, 1 part by weight of active compound is mixed with the stated amounts of solvent and emulsifier, and the concentrate is diluted with water to the desired concentration. In order to test the protective activity, young tomato plants are sprayed with the active compound preparation at the stated application rate. One day after treatment, the plants are inoculated with a spore suspension of Alternaria solani and then remain for 24 hours at 100% relative humidity and 20° C. The plants are then placed into in environment of 96% relative humidity at a temperature of 20° C. The results are evaluated 7 days after the inoculation. An efficacy of 0% corresponds to that of the control, while an efficacy of 100% means that no infestation is observed.
In the case of `Cc1nc(C(F)F)c(C(=O)Nc2c(F)cccc2-c2ccc(Cl)c(F)c2)s1` [drawing 80], the Efficacy in % came out at 100%.

For the compound `Cc1nc(C(F)(F)F)c(C(=O)Nc2ccc(F)cc2-c2ccc(Cl)c(F)c2)s1` [drawing 81], the Efficacy in % came to 100%.
